Source: patent US20160355456A1, “PLANT EXTRACTS AND USE THEREOF” (TAKASAGO INTERNATIONAL CORPORATION, priority 2007, published 2016)

Experiments:
Format in all cases: biochemical
[1] = Deodorizing activity test (1) with tyrosinase as polyphenol oxidase; settings: Tyrosinase 1 mg, sample 2 mg, sodium methyl mercaptan 15% aqueous solution 2 μl, room temperature 10 minutes, head space gas detection tube
Protocol: (§1) Tyrosinase (mfd. by SIGMA, 1 mg) or laccase (mfd. by Amano Enzyme, 1 mg) was added as a polyphenol oxidase to each (2 mg) of 5-CQA (mfd. by Tokyo Chemical Industry), ferulic acid (mfd. by Tokyo Chemical Industry) and ferulylquinic acid and dissolved therein, and then sodium methyl mercaptan (mfd. by Tokyo Chemical Industry, 15% aqueous solution) (2 μl) was added thereto as a malodor substance and sealed therein, followed by stirring at room temperature for 10 minutes. The amount of methyl mercaptan in the head space part was measured using a gas detection tube (GASTEC Corporation, #71H) and the deodorizing ratio was calculated in accordance with the following mathematical expression.
(§2) In this connection, a system to which each of CQA or FQA (2 mg) and polyphenol oxidase were not added was used as a control plot.
(§3) Deodorizing ratio (%)=100−(methyl mercaptan concentration of sample plot/methyl mercaptan concentration of control plot)×100

[2] = Deodorizing activity test (1) with laccase as polyphenol oxidase; settings: Laccase 1 mg, sample 2 mg, sodium methyl mercaptan 15% aqueous solution 2 μl, room temperature 10 minutes, head space gas detection tube
Protocol: as §1, §2, §3

[3] = Anti-oxidation activity test (DPPH radical elimination ability); settings: Trolox equivalent amount; sample 100 mg/l in 50% v/v ethanol, 1 mM DPPH, 30 minutes, absorbance 520 nm
Protocol: As the anti-oxidation activity, to what extent it can eliminate DPPH (1,1-diphenyl-2-picrylhydrazyl) (mfd. by Tokyo Chemical Industry) radicals was evaluated by an absorptiometric method (520 nm). Its illustrative method is as the following anti-oxidation activity measuring method.
Used as the standard of radical elimination ability was Trolox (218940050: mfd. by ACROS ORGANICS) prepared from α-tocopherol which is a typical antioxidant substance by releasing its side chain to provide water-soluble nature. By preparing a calibration curve of Trolox concentration and absorbance (y=−0.2099x+0.4179), anti-oxidation activity of each sample was evaluated by converting it into Trolox equivalent amount. Regarding samples in the table, 5-CQA is manufactured by Tokyo Chemical Industry and ferulic acid is manufactured by Tokyo Chemical Industry.
1 mM ethanol solution of DPPH is prepared (39.4 mg/100 ml). After dissolution, DPPH is immediately used in the test (preparation when used).
By dissolving each sample in 50% v/v ethanol, its 100 mg/l solution is prepared.
A 4 ml portion of the above-mentioned sample solution and 1 ml of the DPPH solution are added to a test tube, followed by stirring and allowing to stand still for 30 minutes, and then absorbance at a wavelength of 520 nm is measured.
By applying absorbance of the sample to the calibration curve, Trolox equivalent amount (mol) is calculated.

Row | Deodorizing ratio (%) [1] [%] | Deodorizing ratio (%) [2] [%] | Compound | Anti-oxidation activity (T. μmol/μmol) [3] [T. μmol/μmol]
1 | −10 | −18 | COc1cc(/C=C/C(=O)O)ccc1O [Ferulic acid, ferulic acid] | 0.37
2 | −20 | −18 | ferulylquinic acid | 0.35
3 | 75 | 100 | O=C(/C=C/c1ccc(O)c(O)c1)O[C@@H]1C[C@@](O)(C(=O)O)C[C@@H](O)[C@@H]1O [Example 5-CQA, 5-caffeoylquinic acid] | 1.03
